# Data as given in patent US20110177105A1, “Novel Selective Inhibitors of Ubiquitin Specific Protease 7, the Pharmaceutical Compositions Thereof and Their Therapeutic Applications” (priority 2010, published 2011).
# Target: T1, USP8 (Homo sapiens, UniProt P40818)
# T1 construct: His tag (pFastBac-HT vector); made in house; host or cells: Sf9 or High Five insect cells, baculovirus
# T1 sequence (P40818 1-1118): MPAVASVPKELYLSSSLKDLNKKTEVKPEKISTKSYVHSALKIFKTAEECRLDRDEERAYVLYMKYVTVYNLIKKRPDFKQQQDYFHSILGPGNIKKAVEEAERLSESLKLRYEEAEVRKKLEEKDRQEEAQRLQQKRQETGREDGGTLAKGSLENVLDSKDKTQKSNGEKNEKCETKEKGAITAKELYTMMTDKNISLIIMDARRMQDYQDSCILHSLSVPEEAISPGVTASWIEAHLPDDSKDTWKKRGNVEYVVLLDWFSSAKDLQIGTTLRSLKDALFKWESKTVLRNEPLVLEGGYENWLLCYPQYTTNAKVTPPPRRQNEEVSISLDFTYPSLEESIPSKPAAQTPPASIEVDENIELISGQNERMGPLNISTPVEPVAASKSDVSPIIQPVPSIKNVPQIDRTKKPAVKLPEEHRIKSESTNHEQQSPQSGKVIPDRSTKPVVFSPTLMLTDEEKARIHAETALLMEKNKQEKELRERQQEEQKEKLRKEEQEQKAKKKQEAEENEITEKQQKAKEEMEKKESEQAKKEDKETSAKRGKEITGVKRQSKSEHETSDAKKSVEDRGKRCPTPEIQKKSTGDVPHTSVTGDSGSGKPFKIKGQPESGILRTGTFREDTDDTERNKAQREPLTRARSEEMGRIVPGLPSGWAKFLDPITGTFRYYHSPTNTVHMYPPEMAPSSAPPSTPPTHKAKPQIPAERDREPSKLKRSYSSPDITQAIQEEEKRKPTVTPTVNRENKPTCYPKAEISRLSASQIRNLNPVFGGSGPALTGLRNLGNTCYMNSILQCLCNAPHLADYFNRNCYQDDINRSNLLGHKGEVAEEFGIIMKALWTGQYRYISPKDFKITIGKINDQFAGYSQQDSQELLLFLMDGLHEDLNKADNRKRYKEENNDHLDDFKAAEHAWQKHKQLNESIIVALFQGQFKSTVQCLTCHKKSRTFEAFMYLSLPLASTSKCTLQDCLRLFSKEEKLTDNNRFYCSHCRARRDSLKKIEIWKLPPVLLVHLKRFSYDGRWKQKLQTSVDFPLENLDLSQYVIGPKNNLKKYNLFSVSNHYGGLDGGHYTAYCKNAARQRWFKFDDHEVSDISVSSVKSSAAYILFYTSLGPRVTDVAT
# Experiment: USP8 activity assay (Ub-AMC)
# Type: biochemical
# Conditions: 300 nM Ub-AMC, 1.36 nM enzyme
# Description: The cDNA encoding USP8 was obtained by PCR amplification from placenta mRNA. USP8 cDNA was subcloned by PCR into a baculovirus expression vector (pFastBac-HT; Invitrogen). A cDNA encoding a mutated USP8 was generated by mutagenic PCR. The corresponding protein encodes a cysteine to alanine substitution at residue 786. The sequences were ascertained by sequencing of the entire open reading frame. Bacmids encoding USP8 were generated following DH10bac transposition. The corresponding bacmids were transfected into insect cells (Sf9). Viruses were recovered from culture supernatant and amplified twice. Insect cells (Sf9 or High Five; Invitrogen) were infected for 72 hours. Total cell lysates were harvested and lyzed in lysis buffer (Tris HCl 50 mM pH 7.6; 0.75% NP40; 500 mM NaCl; 10% glycerol; 1 mM DTT; 10 mM imidazole; Protease Inhibitor Cocktail; AEBSF 20 μg·ml^−1; Aprotinin 10 μg·ml^−1). Proteins were affinity purified on metal affinity resins (Talon Metal affinity resin; BD Biosciences). Bound materials were extensively washed in wash buffer (50 mM Sodium Phosphate pH 7.0; 300 mM NaCl; 10 mM imidazole; 0.5% Triton X-100; 10% glycerol) and eluted from the resin in 250 mM imidazole-containing wash buffer. Proteins were dialyzed in dialysis buffer (Tris HCl pH 7.6 20 mM; NaCl 200 mM; DTT 1 mM; EDTA 1 mM; 10% Glycerol). Proteins purifications were analyzed on 4-12% NuPAGE (Invitrogen).
# USP8 was diluted in USP buffer (50 mM Tris HCl; 0.5 mM EDTA; 5 mM DTT; 0.01% Triton X-100; Bovine Serum Albumin 0.05 mg·ml^−1 pH 8.8). Compounds stocks (100 mM) were stored at −20° C. in DMSO. Compounds were tested at different concentrations: from […] to 91 nM.
# Reactions were performed as duplicates in Black 384 well plates (small volume microplates; Greiner; 10 μl final reaction volume). The substrate concentration for USP8 was 300 nM Ub-AMC (Boston Biochem). The concentration of the enzyme (USP8) in specificity assays was 1.36 nM. The concentrations were determined in order to perform specificity assays under initial velocities at fixed substrate concentration. Compounds were pre-incubated with enzymes for 30 minutes at 25° C. Reactions were initiated by addition of substrate to the plates containing the enzymes (+/−compounds) diluted in assay buffer. Reactions were incubated for 60 minutes at 37° C. Reactions were stopped by adding acetic acid (100 mM final). Readings were performed on a Pherastar Fluorescent Reader (BMG). λ Emission 380 nm: λ Excitation=460 nm. Data (mean values+/−standard deviation) were analyzed as % of control (no compound) and plotted as percentage versus the Log of the compound concentration using GraphPad (Prism). Data were fitted to a sigmoidal model (variable slope).
row,IC50 [µM],SMILES
1,> 200,"Cc1cccc(CN2CCC(CNC(=O)c3ccc4c(Cl)c5c(nc4c3)CCCC5)CC2)c1 [Example 1, 9-Chloro-5,6,7,8-tetrahydro-acridine-3-carboxylic acid [1-(3-methyl-benzyl)-piperidin-4-ylmethyl]-amide]"
2,> 200,"CCCN(CCC)CCNC(=O)c1ccc2c(Cl)c3c(nc2c1)CCCC3 [Example 3, 9-Chloro-5,6,7,8-tetrahydro-acridine-3-carboxylic acid (2-dipropylamino-ethyl)-amide]"
3,> 200,"CCCCN(CC)CCNC(=O)c1ccc2c(Cl)c3c(nc2c1)CCCC3 [Example 4, 9-Chloro-5,6,7,8-tetrahydro-acridine-3-carboxylic acid [2-(butyl-ethyl-amino)-ethyl]-amide]"
4,> 200,"CCN(CCCNC(=O)c1ccc2c(Cl)c3c(nc2c1)CCCC3)Cc1ccccc1 [Example 5, 9-Chloro-5,6,7,8-tetrahydro-acridine-3-carboxylic acid [3-(benzyl-ethyl-amino)-propyl]-amide]"
5,> 200,"CCCN(CCC)CCCNC(=O)c1ccc2c(Cl)c3c(nc2c1)CCCC3 [Example 6, 9-Chloro-5,6,7,8-tetrahydro-acridine-3-carboxylic acid (3-dipropylamino-propyl)-amide]"
6,> 200,"O=C(NCCCN1CCCC1)c1ccc2c(Cl)c3c(nc2c1)CCCC3 [Example 8, 9-Chloro-5,6,7,8-tetrahydro-acridine-3-carboxylic acid (3-pyrrolidin-1-yl-propyl)-amide]"
7,> 200,"CC1CCCC(C)N1CCCNC(=O)c1ccc2c(Cl)c3c(nc2c1)CCCC3 (stereo not drawn) [Example 9, 9-Chloro-5,6,7,8-tetrahydro-acridine-3-carboxylic acid [3-(2,6-dimethyl-piperidin-1-yl)-propyl]-amide]"
8,> 200,"CCN(CC)CCCNC(=O)c1ccc2c(Cl)c3c(nc2c1)CCCC3 [Example 10, 9-Chloro-5,6,7,8-tetrahydro-acridine-3-carboxylic acid (3-diethylamino-propyl)-amide]"
9,> 200,"CN(C)CCNC(=O)c1ccc2c(Cl)c3c(nc2c1)CCCC3 [Example 11, 9-Chloro-5,6,7,8-tetrahydro-acridine-3-carboxylic acid (2-dimethylamino-ethyl)-amide]"
10,> 200,"O=C(c1ccc2c(Cl)c3c(nc2c1)CCCC3)N1CCCCCC1 [Example 12, Azepan-1-yl-(9-chloro-5,6,7,8-tetrahydro-acridin-3-yl)-methanone]"
11,> 200,"CCCN1CCN(CCCNC(=O)c2ccc3c(Cl)c4c(nc3c2)CCCC4)CC1 [Example 13, 9-Chloro-5,6,7,8-tetrahydro-acridine-3-carboxylic acid [3-(4-propyl-piperazin-1-yl)-propyl]-amide]"
12,> 200,"CN(CCCNC(=O)c1ccc2c(Cl)c3c(nc2c1)CCCC3)Cc1ccccc1 [Example 14, 9-Chloro-5,6,7,8-tetrahydro-acridine-3-carboxylic acid [3-(benzyl-methyl-amino)-propyl]-amide]"
13,> 200,"CN1CCN(CCCNC(=O)c2ccc3c(Cl)c4c(nc3c2)CCCC4)CC1 [Example 15, 9-Chloro-5,6,7,8-tetrahydro-acridine-3-carboxylic acid [3-(4-methyl-piperazin-1-yl)-propyl]-amide]"
14,> 200,"O=C(c1ccc2c(Cl)c3c(nc2c1)CCCC3)N1CCC(N2CCCCC2)CC1 [Example 16, [1,4′]Bipiperidinyl-1′-yl-(9-chloro-5,6,7,8-tetrahydro-acridin-3-yl)-methanone]"

row,SMILES,IC50 [µM]
1,"CCN(CC)CCNC(=O)c1ccc2c(Cl)c3c(nc2c1)CCCC3 [Example 7, 9-Chloro-5,6,7,8-tetrahydro-acridine-3-carboxylic acid (2-diethylamino-ethyl)-amide]",> 200
